Source: patent publication US20240025919A1, “AZA-TETRACYCLIC OXAZEPINE COMPOUNDS AND USES THEREOF” (Genentech, Inc., priority 2022, published 2024)

What was measured:
KRAS G12D = KRAS G12D (Homo sapiens (Human), UniProt P01116, G12D); experiment: KRAS G12D LoEnz Biochemical Assay, BODIPY-GDP Exchange TR-FRET (SOS1-mediated nucleotide exchange); details: read-out: KRas (G12D) GDP HTRF IC50
KRAS WT = KRAS WT (Homo sapiens (Human), UniProt P01116); experiment: KRAS WT Biochemical Assay, BODIPY-GDP Exchange TR-FRET (Example 502; 0.06 nM KRAS WT, 15 nM GDP, 300 nM SOS1, 120-minute incubation); details: read-out: KRas HTRF IC50
Chain of KRAS WT (P01116-2 other isoform, or with tags, fused parts or gaps): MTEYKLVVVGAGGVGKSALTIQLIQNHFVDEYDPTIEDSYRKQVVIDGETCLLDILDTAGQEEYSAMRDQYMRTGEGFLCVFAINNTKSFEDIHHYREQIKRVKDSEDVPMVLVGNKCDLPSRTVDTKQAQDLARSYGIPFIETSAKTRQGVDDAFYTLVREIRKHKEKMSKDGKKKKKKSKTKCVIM
Protocol: Example 502: KRAS WT Biochemical Assay, BODIPY-GDP Exchange TR-FRET. Biochemical compound potencies are assessed by evaluating inhibition of SOS1-mediated nucleotide exchange in KRAS WT. In this assay, the SOS1-promoted exchange of fluorescently-labeled GDP (BOPIDY-GDP) is monitored by time-resolved fluorescence resonance energy transfer (TR-FRET). Compounds solubilized in DMSO are dispensed as concentration series into 384-well white assay plates. A preformed complex of 0.06 nM biotin-tagged recombinant human KRAS WT, 15 nM GDP and 0.06 nM terbium-labeled streptavidin (CisBIO) prepared in 10 uL/well assay buffer (20 mM HEPES, pH 7.5, 50 mM NaCl, 10 mM MgCl2, 0.01% Tween-20 and 1 mM dithiothreitol) is added and allowed to incubate for 10-minutes at room temperature. The reaction is initiated with the addition of 5 uL 300 nM recombinant human SOS1 and 300 nM BODIPY-GDP in assay buffer. After a 120-minute incubation, the fluorescence is measured with excitation at 337 nm and emission at 490 and 520 nm. The TR-FRET ratio is determined as the fluorescence at 520 nm divided by the fluorescence at 490 nm multiplied by 10,000. The results are normalized to percent inhibition based on control samples: DMSO (0% inhibition) and control compound at a concentration that inhibits completely (100% inhibition). The normalized TR-FRET results are plotted against compound concentration, and the data are fit to a 4-parameter Hill equation to determine the IC50 values.

Chain of KRAS G12D (P01116-2 other isoform, or with tags, fused parts or gaps G12D): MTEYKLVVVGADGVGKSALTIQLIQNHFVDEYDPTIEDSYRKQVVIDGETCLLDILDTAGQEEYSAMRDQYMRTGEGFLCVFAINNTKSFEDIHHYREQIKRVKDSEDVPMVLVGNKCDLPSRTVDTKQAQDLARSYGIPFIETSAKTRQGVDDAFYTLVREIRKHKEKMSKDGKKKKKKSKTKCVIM

| SMILES | IC50 (KRAS G12D) | IC50 (KRAS WT) |
| --- | --- | --- |
| Cc1c(F)c(N)cc(-c2nc3c4c(nc(OC[C@@]56CCCN5C/C(=C\F)C6)nc4c2F)N2C[C@H]4CC[C@H](N4)[C@H]2[C@H](C)O3)c1C(F)(F)F [Compound 64, 2-fluoro-5-((5S,5aS,6S,9R)-1-fluoro-12-(((S,Z)-2-(fluoromethylene)tetrahydro-1H-pyrrolizin-7a(5H)-yl)methoxy)-5-methyl-5a,6,7,8,9,10-hexahydro-5H-4-oxa-3,10a,11,13,14-pentaaza-6,9-methanonaphtho[1,8-ab]heptalen-2-yl)-3-methyl-4-(trifluoromethyl)aniline] | 0.12 nM | 0.738 nM |
| Cc1c(F)c(N)cc(-c2nc3c4c(nc(OC[C@@H]5CC(F)(F)CN5C)nc4c2F)N2C[C@H]4CC[C@H](N4)[C@H]2[C@H](C)O3)c1C(F)(F)F [Compound 65, 5-((5S,5aS,6S,9R)-12-(((S)-4,4-Difluoro-1-methylpyrrolidin-2-yl)methoxy)-1-fluoro-5-methyl-5a,6,7,8,9,10-hexahydro-5H-4-oxa-3,10a,11,13,14-pentaaza-6,9-methanonaphtho[1,8-ab]heptalen-2-yl)-2-fluoro-3-methyl-4-(trifluoromethyl)aniline] | 1.72 nM | 377 nM |
| Cc1c(F)c(N)cc(-c2nc3c4c(nc(OC[C@H]5CC(F)(F)CN5C)nc4c2F)N2C[C@H]4CC[C@H](N4)[C@H]2[C@H](C)O3)c1C(F)(F)F [Compound 66, 5-((5S,5aS,6S,9R)-12-(((R)-4,4-difluoro-1-methylpyrrolidin-2-yl)methoxy)-1-fluoro-5-methyl-5a,6,7,8,9,10-hexahydro-5H-4-oxa-3,10a,11,13,14-pentaaza-6,9-methanonaphtho[1,8-ab]heptalen-2-yl)-2-fluoro-3-methyl-4-(trifluoromethyl)aniline] | 2.29 nM | 274 nM |
| Cc1cc(N)cc(-c2nc3c4c(nc(OC[C@@H]5CC[C@H]6COCCN65)nc4c2F)N2C[C@H]4CC[C@H](N4)[C@H]2[C@H](C)O3)c1C(F)(F)F [Compound 67, 3-((5S,5aS,6S,9R)-1-Fuoro-1-(((6S,8aS)-hexahydro-1H-pyrrolo[2,1-c][1,4]oxazin-6-yl)methoxy)-5-methyl-5a,6,7,8,9,10-hexahydro-5H-4-oxa-3,10a,11,13,14-pentaaza-6,9-methanonaphtho[1,8-ab]heptalen-2-yl)-5-methyl-4-(trifluoromethyl)aniline] | 0.17 nM | 7.53 nM |
| Cc1cc(N)cc(-c2nc3c4c(nc(OC[C@@]56CCCN5CC5(CC5(F)F)C6)nc4c2F)N2C[C@H]4CC[C@H](N4)[C@H]2[C@H](C)O3)c1C(F)(F)F (stereo partly drawn) [Compound 68, 3-((5S,5aS,6S,9R)-12-(((7a′S)-2,2-Difluorodihydro-1′H,3′H-spiro[cyclopropane-1,2′-pyrrolizin]-7a′(5′H)-yl)methoxy)-1-fluoro-5-methyl-5a,6,7,8,9,10-hexahydro-5H-4-oxa-3,10a,11,13,14-pentaaza[6,9]methanonaphtho[1,8-ab]heptalen-2-yl)-5-methyl-4-(trifluoromethyl)aniline] | 0.07 nM | 0.112 nM |
| Cc1cc(N)cc(-c2nc3c4c(nc(OC[C@]56CCCN5CC(F)(F)C6)nc4c2F)N2C[C@H]4CC[C@H](N4)[C@H]2[C@H](C)O3)c1C(F)(F)F [Compound 69, 3-((5S,5aS,6S,9R)-12-(((R)-2,2-Difluorotetrahydro-1H-pyrrolizin-7a(5H)-yl)methoxy)-1-fluoro-5-methyl-5a,6,7,8,9,10-hexahydro-5H-4-oxa-3,10a,11,13,14-pentaaza-6,9-methanonaphtho[1,8-ab]heptalen-2-yl)-5-methyl-4-(trifluoromethyl)aniline] | 0.31 nM | 40.9 nM |
| C[C@@H]1Oc2nc(-c3cc(N)c(F)cc3C(F)(F)F)c(F)c3nc(OC[C@@H]4CC[C@H]5COCCN54)nc(c23)N2C[C@H]3CC[C@H](N3)[C@@H]12 [Compound 70, 2-Fluoro-5-((5S,5aS,6S,9R)-1-fluoro-12-(((6S,8aS)-hexahydro-1H-pyrrolo[2,1-c][1,4]oxazin-6-yl)methoxy)-5-methyl-5a,6,7,8,9,10-hexahydro-5H-4-oxa-3,10a,11,13,14-pentaaza-6,9-methanonaphtho[1,8-ab]heptalen-2-yl)-4-(trifluoromethyl)aniline] | 0.71 nM | 169 nM |
| C[C@@H]1Oc2nc(-c3cc(N)ccc3C(F)(F)F)c(F)c3nc(OC[C@@]45CCCN4C[C@H](F)C5)nc(c23)N2C[C@H]3CC[C@H](N3)[C@@H]12 [Compound 72, 3-((5S,5aS,6S,9R)-1-Fluoro-12-(((2R,7aS)-2-fluorotetrahydro-1H-pyrrolizin-7a(5H)-yl)methoxy)-5-methyl-5a,6,7,8,9,10-hexahydro-5H-4-oxa-3,10a,11,13,14-pentaaza-6,9-methanonaphtho[1,8-ab]heptalen-2-yl)-4-(trifluoromethyl)aniline] | 0.28 nM | 12.9 nM |
| C[C@@H]1Oc2nc(-c3cc(N)c(F)cc3C(C)(F)F)c(F)c3nc(OC[C@@]45CCCN4C[C@H](F)C5)nc(c23)N2C[C@H]3CC[C@H](N3)[C@@H]12 [Compound 73, 4-(1,1-difluoroethyl)-2-fluoro-5-((5S,5aS,6S,9R)-1-fluoro-12-(((2R,7aS)-2-fluorotetrahydro-1H-pyrrolizin-7a(5H)-yl)methoxy)-5-methyl-5a,6,7,8,9,10-hexahydro-5H-4-oxa-3,10a,11,13,14-pentaaza-6,9-methanonaphtho[1,8-ab]heptalen-2-yl)aniline] | 2.6 nM | 36.3 nM |
| Cc1cc(N)cc(-c2nc3c4c(nc(OC[C@@]56CCCN5C[C@H](F)C6)nc4c2F)N2C[C@H]4CC[C@H](N4)[C@H]2[C@H](C)O3)c1Cl [Compound 74, 4-Chloro-3-((5S,5aS,6S,9R)-1-fluoro-12-(((2R,7aS)-2-fluorotetrahydro-1H-pyrrolizin-7a(5H)-yl)methoxy)-5-methyl-5a,6,7,8,9,10-hexahydro-5H-4-oxa-3,10a,11,13,14-pentaaza-6,9-methanonaphtho[1,8-ab]heptalen-2-yl)-5-methylaniline] | 0.33 nM | 30.8 nM |
| Cc1c(F)c(N)cc(-c2nc3c4c(nc(OC[C@@]56CCCN5C[C@H](F)C6)nc4c2F)N2C[C@H]4CC[C@H](N4)[C@H]2[C@H](C)O3)c1CC(F)F [Compound 75, 4-(2,2-Difluoroethyl)-2-fluoro-5-((5S,5aS,6S,9R)-1-fluoro-12-(((2R,7aS)-2-fluorotetrahydro-1H-pyrrolizin-7a(5H)-yl)methoxy)-5-methyl-5a,6,7,8,9,10-hexahydro-5H-4-oxa-3,10a,11,13,14-pentaaza-6,9-methanonaphtho[1,8-ab]heptalen-2-yl)-3-methylaniline] | 0.13 nM | 11.8 nM |
| Cc1c(F)c(N)cc(-c2nc3c4c(nc(OC[C@@]56CCCN5C[C@H](F)C6)nc4c2F)N2C[C@H]4CC[C@H](N4)[C@H]2[C@H](C)O3)c1Cl [Compound 76, 4-Chloro-2-fluoro-5-((5S,5aS,6S,9R)-1-fluoro-12-(((2R,7aS)-2-fluorotetrahydro-1H-pyrrolizin-7a(5H)-yl)methoxy)-5-methyl-5a,6,7,8,9,10-hexahydro-5H-4-oxa-3,10a,11,13,14-pentaaza-6,9-methanonaphtho[1,8-ab]heptalen-2-yl)-3-methylaniline] | 0.13 nM | 14.3 nM |
| C[C@@H]1Oc2nc(-c3cc(N)cc(F)c3C(F)(F)F)c(F)c3nc(OC[C@@H]4CC[C@H]5COCCN54)nc(c23)N2C[C@H]3CC[C@H](N3)[C@@H]12 [Compound 77, 3-Fluoro-5-((5S,5aS,6S,9R)-1-fluoro-12-(((6S,8aS)-hexahydro-1H-pyrrolo[2,1-c][1,4]oxazin-6-yl)methoxy)-5-methyl-5a,6,7,8,9,10-hexahydro-5H-4-oxa-3,10a,11,13,14-pentaaza-6,9-methanonaphtho[1,8-ab]heptalen-2-yl)-4-(trifluoromethyl)aniline] | 0.24 nM | 21.1 nM |
| C[C@@H]1Oc2nc(-c3cc(O)cc4ccc(F)c(F)c34)c(F)c3nc(OC[C@@]45CCCN4C[C@H](F)C5)nc(c23)N2C[C@H]3CC[C@H](N3)[C@@H]12 [Compound 82, 5,6-Difluoro-4-((5S,5aS,6S,9aR)-1-fluoro-12-(((2R,7aS)-2-fluorotetrahydro-1H-pyrrolizin-7a(5H)-yl)methoxy)-5-methyl-5a,6,7,8,9,10-hexahydro-5H-4-oxa-3,10a,11,13,14-pentaaza-6,9-methanonaphtho[1,8-ab]heptalen-2-yl)naphthalen-2-ol] | 360 nM | 23500 nM |
| C[C@@H]1Oc2nc(-c3cc(N)cc4c3CCC4)c(F)c3nc(OC[C@@]45CCCN4C[C@H](F)C5)nc(c23)N2C[C@H]3CC[C@H](N3)[C@@H]12 [Compound 83, 7-((5S,5aS,6S,9R)-1-Fluoro-12-(((2R,7aS)-2-fluorotetrahydro-1H-pyrrolizin-7a(5H)-yl)methoxy)-5-methyl-5a,6,7,8,9,10-hexahydro-5H-4-oxa-3,10a,11,13,14-pentaaza-6,9-methanonaphtho[1,8-ab]heptalen-2-yl)-2,3-dihydro-1H-inden-5-amine] | 1.15 nM | 123 nM |
